# Source: patent US12458578B2, “Composition for inhibiting plaque formation” (SUNSTAR SUISSE SA, priority 2020, dated 2025)
# Tested on: Fusobacterium (Fusobacterium nucleatum subsp. nucleatum ATCC23726 and ATCC25586)
# Assay: Study of sterilization effect of quaternary ammonium salt sterilizer liquids (in water) on Fusobacterium, viable count after 30 seconds
# Assay type: cell-based
# Conditions: for sterilization effect on Fusobacterium (number of viable bacteria): component used singly as sterilizer liquid in water, 0.01-0.10%, 30 seconds contact
# Protocol: The alkylpyridinium chlorides and benzyl alkyl dimethyl ammonium chlorides shown below were dissolved in water such that each component had each concentration (0.01%, 0.02%, 0.03%, 0.04%, 0.05%, 0.07%, or 0.10%), and the resulting products were used as sterilizer liquids. In the sterilizer liquids, the components were used singly or in combination. The concentration (%) of an alkylpyridinium chloride in the sterilizer liquids is expressed as w/v %; however, since the solvent is water, and the concentrations are relatively low, the value is almost the same as the value expressed as mass % (w/w %) and can be approximated. • Octylpyridinium chloride (OPC): R=(CH2)7CH3 in the following formula • Dodecylpyridnium chloride (DPC): R=(CH2)11CH3 in the following formula • Cetylpyridinium chloride (CPC): R=(CH2)15CH3 in the following formula
# For test bacteria, the following two subspecies of Fusobacterium were used. • Bacteria 1: Fusobacterium nucleatum subsp. nucleatum ATCC23726 • Bacteria 2: Fusobacterium nucleatum subsp. nucleatum ATCC25586
# The test bacteria were individually inoculated into 10 ml of GAM bouillon medium (Nissui Pharmaceutical Co., Ltd.) and incubated anaerobically at 37° C. for 2 days. The resulting culture media were used as test bacteria liquids.
# The sterilizer liquids (200 μl) at different concentrations were each mixed with the test bacteria liquids (200 μl). Thirty seconds after the mixing, 100 μl of the mixture was collected, and 900 μl of drug inactivation PBS in which soy lecithin and Tween 80 were added to a final concentration of 0.07% and 0.5%, respectively, to phosphate-buffered saline (PBS) was added (the mixture was diluted 10-fold) to inactivate the sterilization properties of the sterilizers. Each mixture was serially diluted 10^1- to 10^7-fold with the drug inactivation PBS (serially diluted mixers).
# 100 μl each of the prepared serially diluted mixers was smeared on sheep blood agar media for CDC anaerobes (Becton, Dickinson and Company), cultured anaerobically at 37° C. for 3 days, and the number of viable bacteria was counted.
# FIGS. 1, 2, and 3 show the results. In the graphs of these figures, the vertical axis represents log (the number of viable bacteria) CFU/ml, with the detection limit of this value being 2.
# The concentrations of CPC, DPC, OPC, BKC12, BKC14, and BKC16 in these figures and the following figures represent the concentrations of these components prepared as sterilizer liquids.
SMILES,sterilization effect on Fusobacterium (number of viable bacteria),other results
"CCCCCCCCCCCC[N+](C)(C)Cc1ccccc1.[Cl-] [BKC12, Benzyl dodecyl dimethyl ammonium chloride]",showed a sterilization effect on Fusobacterium even at a relatively low concentration,–
"CCCCCCCCCCCCCC[N+](C)(C)Cc1ccccc1.[Cl-] [BKC14, Benzyl tetradecyl dimethyl ammonium chloride]",showed a sterilization effect on Fusobacterium even at a relatively low concentration,–
"CCCCCCCCCCCCCCCC[N+](C)(C)Cc1ccccc1.[Cl-] [BKC16, Benzyl hexadecyl dimethyl ammonium chloride]",did not show a sterilization effect on Fusobacterium,–
"CCCCCCCCCCCCCCCC[n+]1ccccc1.[Cl-] [CPC, Cetylpyridinium chloride]",did not show a sterilization effect on Fusobacterium,enhancement of the sterilization effect of BKC12 on Fusobacterium (CPC combined with BKC12 in the sterilizer liquid): enhanced the sterilization effect of BKC14 or BKC12 on Fusobacterium; enhancement of the sterilization effect of BKC14 on Fusobacterium (CPC combined with BKC14 in the sterilizer liquid): enhanced the sterilization effect of BKC14 or BKC12 on Fusobacterium; enhancement of the sterilization effect of DPC on Fusobacterium (CPC combined with DPC in the sterilizer liquid): enhanced the sterilization effect of DPC on Fusobacterium; enhancement of the sterilization effect of a quaternary ammonium salt having a C10 to C14 alkyl group on Fusobacterium (cetylpyridinium chloride combined with the quaternary ammonium salt): exhibits an effect of enhancing the sterilization effect of a quaternary ammonium salt having a C10 to C14 alkyl group on Fusobacterium; sterilization effect on Fusobacterium (number of viable bacteria) (listed as Cetylpyridinium chloride): an efficient sterilization effect on Fusobacterium was not observed; sterilization effect on Fusobacterium (number of viable bacteria) (listed as cetylpyridinium chloride): does not produce an efficient sterilization effect on Fusobacterium
"CCCCCCCCCCCC[n+]1ccccc1.[Cl-] [DPC, Dodecylpyridnium chloride]",showed a sterilization effect on Fusobacterium even at a relatively low concentration,–
"CCCCCCCC[n+]1ccccc1.[Cl-] [OPC, Octylpyridinium chloride]",did not show a sterilization effect on Fusobacterium,–
